Measured values reported in patent US9573907B2, “2, 4-pyrimidine derivatives and use thereof” (SNU R&DB FOUNDATION, priority 2009, dated 2017).
“Also recorded” adds a separate entry of the source.

The molecules below were run on cell surface gp96 of splenocytes isolated from C57BL/6 mice (assay: Flow cytometry of cell surface gp96 on splenocytes). Conditions: 10 μM, 24 h.
Assay type: cell-based
Method: FIGS. 1 to 9 represent suppression of cell surface gp96 by GPM1 reduces DC maturation and B220^+ population in gp96tm transgenic mice. (FIG. 1) Chemical structure of GPM1 (Formula 2) and negative control (NC1, Formula 16) used in this study. (FIG. 2) The dose-dependent effect of GPM1 or NC1 on the AIMP1-gp96 interaction using ELISA method as described. The indicated concentrations of the two compounds and biotin-conjugated murine gp96 were added to AIMP1 coated on the surface of microtiter wells, and gp96 bound to AIMP1 was detected with strepavidin-conjugated peroxidase. (FIG. 3) The binding of GPM1 to gp96 was examined by surface plasmon resonance (SPR). GPM1 at the indicated concentrations was injected to immobilized gp96 and the binding was measured using Biacore 3000. The response data were processed using data from a reference surface and buffer injections. Each concentration was tested in triplicate. (FIG. 4) RAW24.7 cells were treated with 10 μM GPM1 for 24 h. Cell lysates were immunoprecipitated with control IgG or anti-gp96 antibody and the immunoprecipitated proteins were immunoblotted with anti-KDELR1, antiAIMP1 and gp96 antibodies. WCL means whole cell lysate. […] TNFα secreted from BMDCs was quantified by ELISA. […]

| Structure (SMILES) | surface gp96 of mouse splenocytes |
| --- | --- |
| COc1cc(OC)nc(OC(Cc2ccccc2)C(=O)O)n1 (centres unmarked) [NC1, 2-(4,6-dimethoxypyrimidin-2-yloxy)-3-phenylpropanoic acid, reference compound] | not |

These molecules were tested against interaction of gp96 and AIMP1 (Mus musculus, UniProt P08113) (assay: ELISA assay of gp96-AIMP1 interaction). Conditions: not given.
Assay type: binding, murine
Method: FIGS. 1 to 9 represent suppression of cell surface gp96 by GPM1 reduces DC maturation and B220^+ population in gp96tm transgenic mice. (FIG. 1) Chemical structure of GPM1 (Formula 2) and negative control (NC1, Formula 16) used in this study. (FIG. 2) The dose-dependent effect of GPM1 or NC1 on the AIMP1-gp96 interaction using ELISA method as described. The indicated concentrations of the two compounds and biotin-conjugated murine gp96 were added to AIMP1 coated on the surface of microtiter wells, and gp96 bound to AIMP1 was detected with strepavidin-conjugated peroxidase. (FIG. 3) The binding of GPM1 to gp96 was examined by surface plasmon resonance (SPR). GPM1 at the indicated concentrations was injected to immobilized gp96 and the binding was measured using Biacore 3000. The response data were processed using data from a reference surface and buffer injections. Each concentration was tested in triplicate. (FIG. 4) RAW24.7 cells were treated with 10 μM GPM1 for 24 h. Cell lysates were immunoprecipitated with control IgG or anti-gp96 antibody and the immunoprecipitated proteins were immunoblotted with anti-KDELR1, antiAIMP1 and gp96 antibodies. WCL means whole cell lysate. (FIG. 5) Splenocytes isolated from C57BL/6 mice were treated with vehicle (5% DMSO in PBS), GPM1, or NC1 (10 μM, 24 h), stained for cell surface gp96, and followed by flow cytometry. (FIG. 6) AIMP1^+/+ or AIMP1^−/− mouse splenocytes (2×10^5 cells) were treated with vehicle, GPM1, or NC1 (10 μM, 24 h), fixed, and then co-cultured with WT bone marrow-derived DCs (1×10^4 cells) for 16 h. TNFα secreted from BMDCs was quantified by ELISA. (FIG. 7) Percentage of gp96^+ MHC class II^+ cell population in splenocytes from gp96tm transgenic female mice treated with vehicle (control) (n=9), GPM1 (n=9), and dexamethasone (n=7) at 30 mg/kg. (FIG. 8) Cell surface ICOSL of CD11b^+CD11c^+ (myeloid DCs), CD11b^−CD11c^+ (lymphoid DCs), and CD11b^+CD11c^− (macrophages) cell populations in splenocytes from gp96tm transgenic female mice treated with vehicle (n=9) and GPM1 (n=9) at 30 mg/kg. (FIG. 9) Percentage of B220^+, MHC class II^+, CD4^+, CD8^+, CD4 and CD8 double negative cell populations in splenocytes from gp96tm transgenic female mice treated with vehicle (n=9), GPM1 (n=9), and dexamethasone (n=7) at 30 mg/kg. Student t-test P values comparing GPM1-treated mice with control are indicated.
96-well plates (Maxisorp., F96; Nunc) were coated with 500 ng/well AIMP1 in PBS (pH 7.4). After washing, the remaining sites were blocked with PBS containing 1% BSA for 1 h. Binding of 10 ng/well biotin-conjugated gp96 was performed in Tris buffer (25 mM Tris, 10 mM NaCl and 0.4% Triton X-100). Each of the 6,580 compounds was added to the well at 100 nM and the plates were washed and incubated with HRP conjugated streptavidin in PBS containing 0.1% BSA and 0.1% Tween 20 for 30 min. The plates were washed, and then substrate was added to each well. The absorbance was monitored at 450 nm.
To identify chemicals that can affect membrane translocation of gp96, the present inventors employed the interaction of gp96 with AIMP1 as the screening target. For this screening, the present inventors chose 6,482 chemicals with different pharmacophore representing 150,000 different chemicals deposited in Korea Chemical Bank and identified the compounds that can inhibit the interaction of the two proteins. For the screening, the present inventors set up a modified ELISA method using recombinant AIMP1 and gp96 proteins as described in Experimental methods. Each of the tested compounds gave different effect on the interaction of the two proteins (FIG. 19). And the present inventors have selected 12 compounds that inhibited the interaction more than 95% of the control at 0.1 μM (Table 1). The present inventors obtained 1251 additional compounds derived from these 12 initial hits and tested them again for their activities against the gp96-AIMP1 interaction.

Chain of interaction of gp96 and AIMP1 (P08113 22-802): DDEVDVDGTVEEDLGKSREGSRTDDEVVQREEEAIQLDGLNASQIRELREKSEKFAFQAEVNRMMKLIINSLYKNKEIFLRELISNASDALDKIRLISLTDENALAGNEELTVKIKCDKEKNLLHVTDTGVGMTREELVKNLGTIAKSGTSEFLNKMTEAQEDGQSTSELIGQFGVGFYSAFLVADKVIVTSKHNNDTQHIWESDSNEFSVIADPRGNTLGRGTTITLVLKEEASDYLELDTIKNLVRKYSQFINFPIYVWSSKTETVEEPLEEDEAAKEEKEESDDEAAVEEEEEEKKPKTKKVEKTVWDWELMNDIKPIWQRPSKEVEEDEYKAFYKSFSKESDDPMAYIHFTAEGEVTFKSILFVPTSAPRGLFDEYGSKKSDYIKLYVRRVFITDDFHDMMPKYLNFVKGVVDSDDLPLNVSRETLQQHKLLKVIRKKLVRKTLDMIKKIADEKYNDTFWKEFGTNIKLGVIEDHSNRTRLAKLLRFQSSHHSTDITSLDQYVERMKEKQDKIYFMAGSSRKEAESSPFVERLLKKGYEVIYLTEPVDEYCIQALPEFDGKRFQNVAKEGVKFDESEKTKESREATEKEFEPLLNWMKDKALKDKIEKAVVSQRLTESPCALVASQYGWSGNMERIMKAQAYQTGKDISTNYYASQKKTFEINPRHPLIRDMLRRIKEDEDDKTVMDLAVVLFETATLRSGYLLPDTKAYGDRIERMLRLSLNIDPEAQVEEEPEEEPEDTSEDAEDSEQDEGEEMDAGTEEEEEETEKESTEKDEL

| Structure (SMILES) | inhibition on the interaction of gp96 and AIMP1 [%] |
| --- | --- |
| COc1cc(OC)nc(OC(Cc2ccccc2)C(=O)O)n1 (centres unmarked) [NC1, 2-(4,6-dimethoxypyrimidin-2-yloxy)-3-phenylpropanoic acid, reference compound] | 4 |

Same assay, conditions: ELISA

| Structure (SMILES) | dose-dependent effect on the interaction of gp96 and AIMP1 |
| --- | --- |
| COc1cc(OC)nc(OC(Cc2ccccc2)C(=O)O)n1 (centres unmarked) [NC1, 2-(4,6-dimethoxypyrimidin-2-yloxy)-3-phenylpropanoic acid, reference compound] | no effect |

The molecules below were run on HL-60 cell lines (assay: FACS analysis of gp96 on cell surface of HL-60 cell lines). Conditions: 1 mM, 24 hours.
Assay type: cell-based
Method: FIG. 35 is a graph showing an FACS analysis result using gp96 antibody, on the amount of gp96 protein existing on a cell surface, when HL-60 cell lines were treated with a 2,4-pyrimidine derivatives at a concentration of 1 mM for 24 hours.
Also, HL-60 cell lines were treated with a 2,4-pyrimidine derivative at a concentration of 1 mM for 24 hours, and the amount of gp96 protein existing on a cell surface was analyzed through flow cytometry (FACS) using gp96 antibody.

| Structure (SMILES) | amount of gp96 protein existing on a cell surface |
| --- | --- |
| COc1cc(OC)nc(OC(C(=O)N2CCOCC2)C(C)C)n1 (centres unmarked) [KR-S-008, 2-(4,6-dimethoxy-pyrimidin-2-yloxy)-3-methyl-1-morpholin-4-yl-butan-1-one] | better effects than KR-S-015; also recorded: better than ester (KR-S-010) or acid (KR-S-009) |
| COc1cc(OC)nc(OC(C(=O)O)C(C)C)n1 (centres unmarked) [KR-S-009, 2-(4,6-dimethoxy-pyrimidin-2-yloxy)-3-methyl-butyric acid] | better effects than KR-S-015 |
| COC(=O)[C@H](C)Oc1nc(OC)cc(OC)n1 [KR-S-011, L-2-(4,6-Dimethoxy-pyrimidin-2-yloxy)-propionic acid methyl ester] | better effects than KR-S-015; also recorded: better than isopropyl (KR-S-009, KR-S-010) |
| COC(=O)[C@@H](C)Oc1nc(OC)cc(OC)n1 [KR-S-012, D-2-(4,6-Dimethoxy-pyrimidin-2-yloxy)-propionic acid methyl ester] | better effects than KR-S-015; also recorded: better than isopropyl (KR-S-009, KR-S-010) |
| COC(=O)C(C)(C)Oc1nc(OC)cc(OC)n1 [KR-S-013, 2-(4,6-Dimethoxy-pyrimidin-2-yloxy)-2-methyl-propionic acid methyl ester] | better effects than KR-S-015 |
| COC(=O)CC(C)Oc1nc(OC)cc(OC)n1 [KR-S-014, D-3-(4,6-Dimethoxy-pyrimidin-2-yloxy)-butyric acid methyl ester] | better effects than KR-S-015 |
| COc1cc(OC)nc(OC(C(=O)O)c2ccccc2)n1 (centres unmarked) [KR-S-017, (4,6-Dimethoxy-pyrimidin-2-yloxy)-phenyl-acetic acid] | better effects than KR-S-015 |
| CCCCNC(=O)C(Oc1nc(OC)cc(OC)n1)c1ccccc1 (centres unmarked) [KR-S-020, N-Butyl-2-(4,6-dimethoxy-pyrimidin-2-yloxy)-2-phenyl-acetamide] | better effects than KR-S-015 |
| COc1cc(OC)nc(O[C@H](C(=O)O)C(C)C)n1 [KR-S-022, L-2-(4,6-Dimethoxy-pyrimidin-2-yloxy)-3-methyl-butyric acid] | better effects than KR-S-015 |
| COc1cc(OC)nc(O[C@H](C)C(=O)O)n1 [KR-S-023, D-2-(4,6-Dimethoxy-pyrimidin-2-yloxy)-propionic acid] | better effects than KR-S-015; also recorded: better than isopropyl (KR-S-009, KR-S-010) |
| COc1cc(OC)nc(O[C@@H](C)C(=O)O)n1 [KR-S-024, L-2-(4,6-Dimethoxy-pyrimidin-2-yloxy)-propionic acid] | better effects than KR-S-015; also recorded: better than isopropyl (KR-S-009, KR-S-010) |
